Assay results reported in patent US20250360107A1, “USE OF MAZINDOL TO TREAT NERVOUS SYSTEM DISORDERS” (AXSOME THERAPEUTICS, INC., priority 2022, published 2025).
Several values for one entry are separate records, joined by “and”; a condition that tells them apart may be missing. Equal values may be shown once.

Key:
[1] = system: narcolepsy with cataplexy; test: Hamilton Depression Rating Scale (HAM-D) score in a patient with narcolepsy with cataplexy; type: in vivo, human; conditions: single patient; 5 mg at 8 am and 5 mg at 1 pm each day; after three weeks of treatment
Method: (§1) A person is diagnosed as suffering from narcolepsy with cataplexy. They are given mazindol and instructed to take 5 mg of mazindol at 8 am and 5 mg of mazindol at 1 pm […] After three weeks of treatment, the HAM-D score has decreased by 10-30%.
as §1, with “pm each day for three weeks. The patient is evaluated prior to treatment, and weekly to determine the MWT score, the number of cataplexy attacks, the PGI-C score, the HAM-D” for “pm”, “30-60%.” for “10-30%.”
as §1, with “pm each day for three weeks. The patient is evaluated prior to treatment, and weekly to determine the MWT score, the number of cataplexy attacks, the PGI-C score, the HAM-D” for “pm”, “60-100%.” for “10-30%.”

[2] = human patients; without controlled release coating; cited from earlier work
[3] = system: narcolepsy with cataplexy; test: Epworth Sleepiness Scale (ESS) score in a patient with narcolepsy with cataplexy; type: in vivo, human; conditions: single patient, 5 mg at 8 am and 5 mg at 1 pm each day
Method: as §1, with “pm each day for three weeks. The patient is evaluated prior to treatment, and weekly to determine the MWT score, the number of cataplexy attacks, the PGI-C score, the HAM-D” for “pm”, “one week” for “three weeks”, “ESS” for “HAM-D”
as §1, with “pm each day for three weeks. The patient is evaluated prior to treatment, and weekly to determine the MWT score, the number of cataplexy attacks, the PGI-C score, the HAM-D” for “pm”, “one week” for “three weeks”, “ESS” for “HAM-D”, “30-60%.” for “10-30%.”
A person is diagnosed as suffering from narcolepsy with cataplexy. They are given mazindol and instructed to take 5 mg of mazindol at 8 am and 5 mg of mazindol at 1 pm each day for three weeks. The patient is evaluated prior to treatment, and weekly to determine the MWT score, the number of cataplexy attacks, the PGI-C score, the HAM-D score, the ESS score, the NSAQ score, and the ability to concentrate on the NSAQ. […]

[4] = system: narcolepsy with cataplexy; test: Number of cataplexy attacks in a patient with narcolepsy with cataplexy; type: in vivo, human; conditions: single patient, 5 mg at 8 am and 5 mg at 1 pm each day
Method: (§2) A person is diagnosed as suffering from narcolepsy with cataplexy. They are given mazindol and instructed to take 5 mg of mazindol at 8 am and 5 mg of mazindol at 1 pm each day for three weeks. The patient is evaluated prior to treatment, and weekly to determine the MWT score, the number of cataplexy attacks, the PGI-C score, the HAM-D score, the ESS score, the NSAQ score, and the ability to concentrate on the NSAQ. After one week of treatment, the number of cataplexy attacks have decreased by 10-30%.
as §2, with “30-60%.” for “10-30%.”
A person is diagnosed as suffering from narcolepsy with cataplexy. […]
(§3) A person is diagnosed as suffering from narcolepsy with cataplexy. […] The patient is evaluated prior to treatment, and weekly to determine the MWT score, the number of cataplexy attacks, the PGI-C score, the HAM-D score, the ESS score, the NSAQ score, and the ability to concentrate on the NSAQ. […]

[5] = system: narcolepsy with cataplexy; test: Maintenance of Wakefulness Test (MWT) score in a patient with narcolepsy with cataplexy; type: in vivo, human; conditions: single patient, 5 mg at 8 am and 5 mg at 1 pm each day
Method: as §1, with “one week” for “three weeks”, “MWT” for “HAM-D”, “increased” for “decreased”
as §2, with “MWT score has increased” for “number of cataplexy attacks have decreased”, “30-60%.” for “10-30%.”
as §3, §3

Question: Which “decrease in HAM-D score” value [1] does the source give for OC1(c2ccc(Cl)cc2)c2ccccc2C2=NCCN21 (centres unmarked) [mazindol] here?
Answer: 10-30% and 30-60% and 60-100%

Question: And the “time to reach a maximum plasma concentration” value [2]?
Answer: 2 to 4 h

Question: What about the “decrease in ESS score” value ([3]; after one week of treatment) of the same compound?
Answer: 10-30% and 30-60% and 60-100%

Question: What about the “decrease in ESS score” value ([3]; after three weeks of treatment) of the same compound?
Answer: 10-30% and 30-60% and 60-100%

Question: And the “decrease in the number of cataplexy attacks” value ([4]; after one week of treatment)?
Answer: 10-30% and 30-60% and 60-100%

Question: What about the “decrease in the number of cataplexy attacks” value ([4]; after three weeks of treatment) of the same compound?
Answer: 10-30% and 30-60% and 60-100%

Question: What about the “increase in MWT score” value ([5]; after one week of treatment) of the same compound?
Answer: 10-30% and 30-60% and 60-100%

Question: And the “increase in MWT score” value ([5]; after three weeks of treatment)?
Answer: 10-30% and 30-60% and 60-100%
